The source of these data is patent US20250134946A1 (GEL4MED, INC., priority 2021, published 2025).

Data set [1] is described as follows: Net peptide charge and isoelectric point (FIGS. 9-10). The class given is physicochemical. The conditions noted are these: pH 7. The text has this: The peptide may be purified. For example, the peptide may be lyophilized. […] Other peptides are within the scope of the disclosure.
Exemplary peptides having a charge of +5 to +9 include […](d)[…], […](d)[…], and […](d)[…]. In other embodiments, the purified peptide may be substantially neutral. […] Net charge may be selected by peptide design. Design of electrostatic charge in the peptide hydrogel may allow control of charge interaction with cell membrane and proteins.

The conditions of data set [2]: cited from earlier work.
Data set [3] relates to decorin. The data set is described as follows: ChaseABC release from peptide hydrogels, bioactivity on decorin (FIGS. 6B, 15). The conditions noted are these: pilot data, days 3 and 5. The text has this: The protein was not degraded.
In addition to release and retention rates, in analogous experiments the released and retained ChaseABC enzyme will also be assayed for bioactivity. Activity will be assessed through the efficacy of the sample to digest the small proteoglycan decorin as described previously.
Importantly, the protein was not degraded.

Non-standard residues stand in square brackets, D forms with d. No end group written: not given here.

As for “VEVSVSVEV(d)PPTEVSVEVEV (VEVSVSVEV[dP]PTEVSVEVEV)”, the net charge result in data set [1] was “net negative charge”. Turning to `NCCCC[C@H](N)C(=O)O` [lysine], in data set [2], the “side chain pKa” value was “about 10.5”.

Turning to `O=C(O)C(F)(F)F` [trifluoroacetic acid], in data set [2], the pKa result is given as “about 0”.

Regarding chondroitinase ABC [ChaseABC], the “bioactivity of released enzyme on decorin substrate” value in data set [3] is “release of bioactive enzyme from the gel was demonstrated”.
